PMC3954708 (Bioorganic & medicinal chemistry letters, 2013)
pIC50: −log10 of the molar value.

Assays:
[1] = cited from earlier work
[2] = microsomal stability with rat liver microsomes and NADPH, LCMS analysis; assay type: in vitro ADME; settings: liver microsomes
UT-B [3] = biological target: T1, UT-B (Homo sapiens, UniProt Q13336); assay: erythrocyte lysis assay for UT-B inhibition; assay type: cell-based, mouse
T1 sequence (Q13336 1-389): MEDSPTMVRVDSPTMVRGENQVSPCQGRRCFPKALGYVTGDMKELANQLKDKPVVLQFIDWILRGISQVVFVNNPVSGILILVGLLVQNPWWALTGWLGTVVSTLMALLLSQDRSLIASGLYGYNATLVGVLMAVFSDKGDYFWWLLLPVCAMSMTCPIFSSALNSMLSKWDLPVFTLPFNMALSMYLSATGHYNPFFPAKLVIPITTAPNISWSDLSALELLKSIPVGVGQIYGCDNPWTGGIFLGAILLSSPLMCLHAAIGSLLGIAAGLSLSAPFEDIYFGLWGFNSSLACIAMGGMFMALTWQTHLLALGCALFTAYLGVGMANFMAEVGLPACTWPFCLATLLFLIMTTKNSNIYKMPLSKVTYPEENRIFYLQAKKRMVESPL

UT-B [4] = settings: cited from earlier work
[5] = administration to mice; cited from earlier work
[6] = IC50 (inhibitory potency, abstract), UT-B inhibition
[7] = IC50 (UT-B inhibition activity), mouse erythrocyte lysis assay (n = 3), fit to single-site saturation model

CC(F)(F)c1ccc(S(=O)(=O)c2nnn3c2nc(NCc2cccs2)c2sccc23)cc1 [Compound 1c]
microsomal degradation / hepatic oxidation [1]: resisted microsomal degradation | remaining at 0.5 h [2]: 96%

CC(F)(F)c1ccc(S(=O)(=O)c2nnn3c2nc(NCc2ccsc2)c2sccc23)cc1 [Compound 4b]
pIC50 (UT-B [3]; [6]): ~7.40

Cc1csc(CNc2nc3c(S(=O)(=O)c4ccc(C(C)(F)F)cc4)nnn3c3ccsc23)c1 [Compound 4a]
pIC50 (UT-B [3]; [6]): ~7.40

CCc1ccc(S(=O)(=O)c2nnn3c2nc(NCc2cccs2)c2sccc23)cc1 [Compound 1a]
microsomal degradation / hepatic oxidation [1]: underwent rapid oxidation by hepatic enzymes | mechanism of UT-B inhibition (UT-B [4]): competitive mechanism | effect on urine osmolality [5]: reduced urine osmolality | effect on urine output [5]: increased urine output

CC(F)(F)c1ccc(S(=O)(=O)c2nnn3c2nc(NCC2CCC2)c2sccc23)cc1 [Compound 4f]
pIC50 (UT-B [3]; [7]): < 6.10

CC(F)(F)c1ccc(S(=O)(=O)c2nnn3c2nc(NCc2ccccc2)c2sccc23)cc1 [Compound 4d]
pIC50 (UT-B [3]; [7]): < 6.10

CC(F)(F)c1ccc(S(=O)(=O)c2nnn3c2nc(NCC2CC2)c2sccc23)cc1 [Compound 4e]
pIC50 (UT-B [3]; [7]): < 6.10
